Data reported in patent US10597388B2, “Pyridazinone herbicides” (FMC CORPORATION, priority 2014, dated 2020).

Experiments:
Format in all cases: in vivo
[1] = tested on: blackgrass (Alopecurus myosuroides); assay: Test A greenhouse herbicide test, postemergence
How it was run: (§1)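 Scores are visual injury ratings from 0 (no effect) to 100 (complete control) versus untreated plants, taken roughly 10 d after treatment in the greenhouse. Treatment was postemergence, on one- to two-leaf plants 2–10 cm high growing in a loam soil/sand mix.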

[2] = tested on: galium (catchweed bedstraw, Galium aparine); assay: Test A greenhouse herbicide test, postemergence
How it was run: as §1

[3] = tested on: barnyardgrass (Echinochloa crus-galli); assay: Test C greenhouse herbicide test, pre- and postemergence
How it was run: (§2)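 Percent-control ratings (0 none, 100 complete) came from visual comparison with controls held alongside in the greenhouse for 13–15 d. Treatments covered soil application at sowing and foliar application to young plants 2–18 cm tall.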

[4] = tested on: crabgrass, large (large crabgrass, Digitaria sanguinalis); assay: as above
How it was run: as §2

[5] = tested on: foxtail, giant (giant foxtail, Setaria faberii); assay: as above
How it was run: as §2

[6] = tested on: galium (catchweed bedstraw, Galium aparine); assay: as above
How it was run: as §2

[7] = tested on: johnsongrass (Sorghum halepense); assay: as above
How it was run: as §2

[8] = tested on: lambsquarters (Chenopodium album); assay: as above
How it was run: as §2

[9] = tested on: morningglory (Ipomoea coccinea); assay: as above
How it was run: as §2

[10] = tested on: oilseed rape (Brassica napus); assay: as above
How it was run: as §2

[11] = tested on: ragweed (common ragweed, Ambrosia elatior); assay: as above
How it was run: as §2

[12] = tested on: ryegrass, Italian (Italian ryegrass, Lolium multiflorum); assay: as above
How it was run: as §2

[13] = tested on: wheat (winter wheat, Triticum aestivum); assay: as above
How it was run: as §2

[14] = 125 g ai/ha, 0 to 100 scale where 0 is no effect and 100 is complete control
[15] = 500 g ai/ha, 0 to 100 scale, 0 is no effect, 100 is complete control
[16] = Postemergence, 31 g ai/ha, 0 to 100 scale (0 no effect, 100 complete control)
[17] = Postemergence, 125 g ai/ha, scale 0 to 100, 0 is no effect, 100 is complete control
[18] = Postemergence, 250 g ai/ha, scale 0 to 100, 0 no effect, 100 complete control, 13 to 15 d
[19] = Preemergence, 31 g ai/ha, scale 0 to 100, 0 is no effect, 100 is complete control
[20] = Preemergence, 62 g ai/ha, scale 0 to 100, 0 is no effect, 100 is complete control
[21] = Preemergence, 125 g ai/ha, scale 0 to 100, 0 is no effect, 100 is complete control
[22] = Preemergence, 250 g ai/ha, scale 0 to 100, 0 no effect, 100 complete control
[23] = postemergence, 62 g ai/ha, scale 0 to 100, 0 no effect, 100 complete control

## CCc1sc2ccc(C)cc2c1-c1c(O)c(C)nn(C)c1=O [Compound 47]
[1]; [14]
  Plant response rating, Blackgrass: 60
[1]; [15]
  Blackgrass plant response rating: 70
[2]; [14]
  Plant response rating, Galium: 90
[2]; [15]
  Galium plant response rating: 100
[3]; [16]
  Barnyardgrass plant response rating: 15
[3]; [17]
  Plant response rating, Barnyardgrass: 85
[3]; [18]
  Plant response rating, Barnyardgrass: 90
[3]; [19]
  Plant response rating, Barnyardgrass: 5
[3]; [20]
  Plant response rating, Barnyardgrass: 20
[3]; [21]
  Plant response rating, Barnyardgrass: 85
[3]; [22]
  Barnyardgrass plant response rating: 100
[3]; [23]
  Barnyardgrass plant response rating: 55
[4]; [16]
  Crabgrass, Large plant response rating: 20
[4]; [17]
  Plant response rating, Crabgrass, Large: 40
[4]; [18]
  Plant response rating, Crabgrass, Large: 35
[4]; [19]
  Plant response rating, Crabgrass, Large: 0
[4]; [20]
  Plant response rating, Crabgrass, Large: 30
[4]; [21]
  Plant response rating, Crabgrass, Large: 60
[4]; [22]
  Crabgrass, Large plant response rating: 95
[4]; [23]
  Crabgrass, Large plant response rating: 30
[5]; [16]
  Foxtail, Giant plant response rating: 50
[5]; [17]
  Plant response rating, Foxtail, Giant: 75
[5]; [18]
  Plant response rating, Foxtail, Giant: 85
[5]; [19]
  Plant response rating, Foxtail, Giant: 15
[5]; [20]
  Plant response rating, Foxtail, Giant: 50
[5]; [21]
  Plant response rating, Foxtail, Giant: 85
[5]; [22]
  Foxtail, Giant plant response rating: 100
[5]; [23]
  Foxtail, Giant plant response rating: 65
[6]; [16]
  Galium plant response rating: 80
[6]; [17]
  Plant response rating, Galium: 90
[6]; [18]
  Plant response rating, Galium: 90
[6]; [19]
  Plant response rating, Galium: 90
[6]; [20]
  Plant response rating, Galium: 95
[6]; [21]
  Plant response rating, Galium: 98
[6]; [22]
  Galium plant response rating: 98
[6]; [23]
  Galium plant response rating: 90
[7]; [16]
  Johnsongrass plant response rating: 10
[7]; [17]
  Plant response rating, Johnsongrass: 20
[7]; [18]
  Plant response rating, Johnsongrass: 25
[7]; [19]
  Plant response rating, Johnsongrass: 0
[7]; [20]
  Plant response rating, Johnsongrass: 0
[7]; [21]
  Plant response rating, Johnsongrass: 0
[7]; [22]
  Johnsongrass plant response rating: 0
[7]; [23]
  Johnsongrass plant response rating: 10
[8]; [16]
  Lambsquarters plant response rating: 85
[8]; [17]
  Plant response rating, Lambsquarters: 98
[8]; [18]
  Plant response rating, Lambsquarters: 85
[8]; [19]
  Plant response rating, Lambsquarters: 100
[8]; [20]
  Plant response rating, Lambsquarters: 100
[8]; [21]
  Plant response rating, Lambsquarters: 100
[8]; [22]
  Lambsquarters plant response rating: 100
[8]; [23]
  Lambsquarters plant response rating: 85
[9]; [16]
  Morningglory plant response rating: 100
[9]; [17]
  Plant response rating, Morningglory: 100
[9]; [18]
  Plant response rating, Morningglory: 100
[9]; [19]
  Plant response rating, Morningglory: 90
[9]; [20]
  Plant response rating, Morningglory: 100
[9]; [21]
  Plant response rating, Morningglory: 100
[9]; [22]
  Morningglory plant response rating: 95
[9]; [23]
  Morningglory plant response rating: 100
[10]; [16]
  Oilseed Rape plant response rating: 0
[10]; [17]
  Plant response rating, Oilseed Rape: 5
[10]; [18]
  Plant response rating, Oilseed Rape: 10
[10]; [19]
  Plant response rating, Oilseed Rape: 0
[10]; [20]
  Plant response rating, Oilseed Rape: 0
[10]; [21]
  Plant response rating, Oilseed Rape: 0
[10]; [22]
  Oilseed Rape plant response rating: 10
[10]; [23]
  Oilseed Rape plant response rating: 0
[11]; [16]
  Ragweed plant response rating: 80
[11]; [17]
  Plant response rating, Ragweed: 98
[11]; [18]
  Plant response rating, Ragweed: 100
[11]; [19]
  Plant response rating, Ragweed: 50
[11]; [20]
  Plant response rating, Ragweed: 85
[11]; [21]
  Plant response rating, Ragweed: 98
[11]; [22]
  Ragweed plant response rating: 100
[11]; [23]
  Ragweed plant response rating: 98
[12]; [16]
  Ryegrass, Italian plant response rating: 0
[12]; [17]
  Plant response rating, Ryegrass, Italian: 25
[12]; [18]
  Plant response rating, Ryegrass, Italian: 30
[12]; [19]
  Plant response rating, Ryegrass, Italian: 0
[12]; [20]
  Plant response rating, Ryegrass, Italian: 20
[12]; [21]
  Plant response rating, Ryegrass, Italian: 45
[12]; [22]
  Ryegrass, Italian plant response rating: 50
[12]; [23]
  Ryegrass, Italian plant response rating: 10
[13]; [16]
  Wheat plant response rating: 0
[13]; [17]
  Plant response rating, Wheat: 0
[13]; [18]
  Plant response rating, Wheat: 0
[13]; [19]
  Plant response rating, Wheat: 0
[13]; [20]
  Plant response rating, Wheat: 0
[13]; [21]
  Plant response rating, Wheat: 0
[13]; [22]
  Wheat plant response rating: 0
[13]; [23]
  Wheat plant response rating: 0
